Data as given in patent publication US20060234914A1, “Fragments of proinsulin c-peptide” (Creative Peptides Sweden AB, priority 2002, published 2006).
Read-outs that look alike come from different tables or passages of the source.

Columns and labels:
[1] = tested on: p44/42 MAP kinase (Erk1 and Erk2); experiment: Western blot of p44/42 MAP kinase phosphorylation in Swiss 3T3 cells; type: cell-based, rat; conditions: Example 6, 1 nM peptide, 3 minutes at 37° C., FIG. 3
Description: Swiss 3T3 cells, a […] fibroblast cell line, passage 6, were seeded 96 h before use in three 6-well plates. After 96 h, the cells in each well were confluent. The cultivation medium was Dulbecco's Modified Eagle Medium (DMEM) without sodium pyruvate, with pyridoxineHCl, 4500 mg/l glucose, 50 μg/ml gentamicin, and 10% foetal calf serum (FCS).
The cells were washed thoroughly with 37° C. starvation medium (cultivation medium as above without addition of FCS) and then kept in 1 ml 37° C. starvation medium for 2.5 h. 15 min. prior to the experiment, the buffer was changed to 37° C. Hanks' buffer (Gibco), and then kept in 37° C. […]
Protein content was determined in the collected supernatants using a BCA Protein Assay Reagent Kit (Pierce), including albumin standards. […]
The PVDF membranes were incubated with primary antibodies against (I) Phosphop44/42 MAP Kinase (Thr202/Tyr204) and (II) p44/42 MAP Kinase, respectively. […] The membranes were rinsed with TBS/T, and HRP activity on the membranes was detected with the SuperSignal® West Pico Chemiluminescent Substrate kit (Pierce).
Photographic films were exposed to the membranes, and bands of appropriate sizes on the resulting films were quantitated by densitometry, using a GS-710 Imaging Densitometer (Bio-Rad) and Quantity One software (Bio-Rad). […]

[2] = tested on: human renal tubular cells; experiment: Intracellular Ca2+ concentration ([Ca2+]i) measurements as an assay of C-peptide activity; type: cell-based; conditions: for [Ca2+]i response after preincubation of the cells with pertussis toxin: pertussis toxin 1 μg/ml for 4 h at 37° C.
Text: Based on studies showing a C-peptide effect on the intracellular Ca^2+ concentration ([Ca^2+]) (Ohtomo et al., supra, Kunt et al., supra), an assay has been developed, for C-peptide activity, based on measuring [Ca^2+]i changes in human renal tubular cells, namely a rise in [Ca^2+]i.
The following peptides were used, all prepared by solid-phase peptide synthesis and purchased from Sigma (Genosys (Cambridge, UK): human C-peptide, scrambled C-peptide (with the same residues, but randomly ordered des (27-31) C-peptide and C-terminal pentapeptide (EGSLQ).
Human renal tubular cells were obtained from the outer cortex of renal tissues obtained from non-diabetic patients undergoing elective nephrectomy for renal cell carcinomas. The collection of the tissue samples during suegery was approved by the Ethics Committee of the Karolinska Hospital. The cells were cultured in RPMI 1640 (Life Technologies, Grand Island, N.Y.) supplemented with 10% fetal calf serum, 2 mM L-glutamine, 10 mM HEPES, benzylpenicillin (100 U/ml), and streptbmycin (100 U/ml). Cells were grown to confluency on cover slips in a six-well plate and starved in serum-free medium for 4 hours before experiments.
Changes in [Ca^2+1]1 were measured on cells attached to cover slips. The cells were loaded with 2 μM of the fluorescent Ca^2+ indicator fura-2/AM at 37° C. for 30 minutes in a buffer containing 115 mM NaCl, 24 mM NaHCO3, 4.7 mM KCl, 1.26 mM CaCl2 1.2 mM KH2PO4, 1.2 mM MgSOZ 11.1 mM glucose, 20 mM HEPES, and 5 mg/ml bovine serum albumin, pH 7.4. Cover slips were mounted as the bottom of an open chamber placed on a thermostatically controlled stage of an inverted epifluorescence microscope (Zeiss, Axiovert 135). The microscope was connected to a SPEX fluorolog-2 system for dual-wave-length excitation fluorimetry. The emissions of the two excitation wavelengths of 340 and 380 nm were used to calculate the fluorescence ratio (F340/F380) reflecting changes in [Ca^2+]i, [17]. Treatments during recordings were made using a perifusion system attached to the chamber. Changes in [Ca^2+]i were measured using an attached CCD camera that allowed recording of individual cells in the cell clusters. The influence of pertussis toxin was studied by preincubation of the cells with the toxin at 1 μg/ml for 4 h at 37° C.
In these peptides each or all of Glu 3, Glu 11 and Glu 27 of human C-peptide were replaced by Ala. In addition, all of Glu 3, Glu 11 and Glu 27 were replaced by Gln. The peptides were tested for C-peptide activity by monitoring for rises in [Ca^2+]i as described in Example 1.

Row | Substance | capacity of phosphorylating p44/42 MAP kinase [1] | changes in [Ca2+]i (F340/F380 ratio) ([2]; human renal tubular cells loaded with fura-2/AM, peptide 5 and 10 nM) | [Ca2+]i response after preincubation of the cells with pertussis toxin [2] | changes in [Ca2+]i (F340/F380 ratio) [2]
1 | EAEPLQPPQPELGGGPGAGSLQPLALEGSLQ [Proline-rich C-peptide] | decrease in phosphorylating capacity | – | – | –
2 | EAEDLQVGQVELGGGPGAGSLQPLALEGSLQ [human C-peptide] | – | effect of 5 nM human C-peptide may be seen | eliminated | –
3 | EAEALQAAQAELGGGPGAGSLQPLALEGSLQ (EAEALQAAQAELGGGPGAGSLQPLALEGSLQ) [Alanine-rich C-peptide] | did not decrease the biological activity | – | – | –
4 | EGSLQ [C-terminal pentapeptide] | – | – | eliminated | Results similar to those with human C-peptide
